How the values were obtained:
Format in all cases: in vivo
[1] = test system: winter barley (Hordeum vulgare); assay: Test B postemergence plant response; conditions: for Barley plant response rating (0 to 100 scale): 0 is no effect
Outline: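 Plants at the 1- to 4-leaf stage (2 to 18 cm tall), grown in pots of peat moss/vermiculite medium with wetting agent and starter nutrients, received postemergence applications of test chemicals. After 13 to 15 days in a greenhouse, injury was rated visually against untreated controls on a 0 (no effect) to 100 (complete control) scale.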

[2] = test system: rice (Oryza sativa); assay: Test B flooded paddy test; conditions: for Plant response rating, Flood, Rice: 250 g ai/ha, flooded paddy test, visual rating on 0 to 100 scale (0 no effect, 100 complete control) after 13 to 15 days; for Plant response rating, Rice: Flood (flooded paddy test), 13 to 15 days; for Rice plant response rating: Flood, scale 0 to 100 (0 no effect, 100 complete control)
Outline: (§1)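 2-leaf seedlings; pots flooded 3 cm over soil at treatment; cpd dosed into floodwater, depth kept constant. Greenhouse 13–15 d. Visual rating vs untreated controls, 0 = no effect, 100 = complete control.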

[3] = test system: ducksalad (Heteranthera limosa); assay: Test B flooded paddy test; conditions: for Plant response rating, Flood, Ducksalad: 250 g ai/ha, flooded paddy test, visual rating on 0 to 100 scale (0 no effect, 100 complete control) after 13 to 15 days; for Plant response rating, Ducksalad: Flood (flooded paddy test), 13 to 15 days; for Ducksalad plant response rating: Flood, scale 0 to 100 (0 no effect, 100 complete control)
Outline: as §1

[4] = test system: barnyardgrass (Echinochloa crus-galli); assay: Test B flooded paddy test; conditions: for Plant response rating, Flood, Barnyardgrass: 250 g ai/ha, flooded paddy test, visual rating on 0 to 100 scale (0 no effect, 100 complete control) after 13 to 15 days; for Plant response rating, Barnyardgrass: Flood (flooded paddy test), 13 to 15 days; for Barnyardgrass plant response rating: Flood, scale 0 to 100 (0 no effect, 100 complete control)
Outline: as §1

[5] = test system: umbrella sedge (Cyperus difformis); assay: Test B flooded paddy test; conditions: for Plant response rating, Flood, Sedge, Umbrella: 250 g ai/ha, flooded paddy test, visual rating on 0 to 100 scale (0 no effect, 100 complete control) after 13 to 15 days; for Plant response rating, Sedge, Umbrella: Flood (flooded paddy test), 13 to 15 days; for Sedge, Umbrella plant response rating: Flood, scale 0 to 100 (0 no effect, 100 complete control)
Outline: as §1

[6] = test system: large crabgrass (Digitaria sanguinalis); assay: Test A pre-/postemergence plant response
Outline: (§2)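 Approximately ten days after concurrent pre- and postemergence spraying in a greenhouse, plants were compared with untreated controls and rated visually for injury, 0 = no effect to 100 = complete control. Preemergence spray was directed onto loam/sand soil; postemergence targeted 1–2 leaf seedlings.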

[7] = test system: pigweed (Amaranthus retroflexus); assay: Test A pre-/postemergence plant response
Outline: as §2

[8] = test system: morningglory (Ipomoea spp.); assay: Test A pre-/postemergence plant response
Outline: as §2

[9] = test system: corn (Zea mays); assay: Test A pre-/postemergence plant response
Outline: as §2

[10] = test system: giant foxtail (Setaria faberii); assay: Test A pre-/postemergence plant response
Outline: as §2

[11] = test system: wheat (Triticum aestivum); assay: Test A pre-/postemergence plant response
Outline: as §2

[12] = test system: barnyardgrass (Echinochloa crus-galli); assay: Test A pre-/postemergence plant response
Outline: as §2

[13] = test system: velvetleaf (Abutilon theophrasti); assay: Test A pre-/postemergence plant response
Outline: as §2

[14] = 31 g ai/ha, scale of 0 to 100 where 0 is no effect and 100 is complete control
[15] = 62 g ai/ha, scale 0 to 100, 0 is no effect, 100 is complete control
[16] = 125 g ai/ha, scale 0 to 100, 0 is no effect, 100 is complete control
[17] = Postemergence, 125 g ai/ha, visual injury, 0 to 100 scale (0 no effect, 100 complete control), approx. ten days
[18] = Postemergence, 500 g ai/ha, 0 to 100 scale, 0 = no effect, 100 = complete control, approx. ten days
[19] = Preemergence, 125 g ai/ha, 0 to 100 scale, 0 = no effect, 100 = complete control
[20] = Preemergence, 500 g ai/ha, visual injury, 0 to 100 scale (0 no effect, 100 complete control), approx. ten days
[21] = 31 g ai/ha, postemergence, scale 0 to 100, 0 is no effect, 100 is complete control
[22] = 62 g ai/ha, postemergence, 100 is complete control, 13 to 15 days
[23] = Postemergence, 125 g ai/ha, visual rating after 13 to 15 days, scale 0 (no effect) to 100 (complete control)
[24] = Postemergence, 250 g ai/ha, scale 0 to 100 (0 no effect, 100 complete control)
[25] = 62 g ai/ha, scale of 0 to 100 where 0 is no effect and 100 is complete control
[26] = Postemergence, 125 g ai/ha, 0 to 100 scale where 0 is no effect and 100 is complete control

2-(3,5-difluorophenyl)-5-[(2-hydroxy-4-oxobicyclo[3.2.1]oct-2-en-3-yl)carbonyl]-3-(2-methoxyethyl)-4(3H)-pyrimidinone [Compound 243]
50: Plant response rating, Flood, Barnyardgrass [4] | Plant response rating, Pigweed [7, 19]
70: Plant response rating, Sedge, Umbrella [5, 16] | Crabgrass, Large plant response rating [6, 17] | Plant response rating, Corn [9, 18] | Plant response rating, Velvetleaf [13, 19]
100: Plant response rating, Crabgrass, Large [6, 20] | Pigweed plant response rating [7, 17] | Plant response rating, Pigweed [7, 18] | Plant response rating, Pigweed [7, 20] | Plant response rating, Barnyardgrass [12, 18] | Plant response rating, Barnyardgrass [12, 20] | Velvetleaf plant response rating [13, 17] | Plant response rating, Velvetleaf [13, 18] | Plant response rating, Velvetleaf [13, 20]
90: Plant response rating, Crabgrass, Large [6, 18] | Plant response rating, Crabgrass, Large [6, 19] | Plant response rating, Morningglory [8, 18] | Plant response rating, Morningglory [8, 20] | Plant response rating, Foxtail, Giant [10, 18] | Plant response rating, Foxtail, Giant [10, 20]
10: Corn plant response rating [9, 17]
75: Plant response rating, Flood, Ducksalad [3] | Plant response rating, Flood, Sedge, Umbrella [5]
0: Plant response rating, Barley ([1]; Postemergence, 31 g ai/ha, scale 0 to 100 (0 no effect, 100 complete control)) | Plant response rating, Barley ([1]; Postemergence, 62 g ai/ha, scale 0 (no effect) to 100 (complete control), 13 to 15 days) | Plant response rating, Flood, Rice [2] | Plant response rating, Rice [2, 14] | Plant response rating, Rice [2, 15] | Plant response rating, Rice [2, 16] | Plant response rating, Ducksalad [3, 14] | Plant response rating, Barnyardgrass [4, 14] | Plant response rating, Barnyardgrass [4, 15] | Plant response rating, Barnyardgrass [4, 16] | Plant response rating, Sedge, Umbrella [5, 14] | Plant response rating, Corn [9, 19] | Plant response rating, Corn [9, 20] | Wheat plant response rating [11, 17] | Plant response rating, Wheat [11, 19] | Plant response rating, Wheat [11, 20] | Plant response rating, Barnyardgrass [12, 19]
40: Plant response rating, Foxtail, Giant [10, 19] | Plant response rating, Wheat [11, 18]
30: Plant response rating, Ducksalad [3, 15] | Plant response rating, Sedge, Umbrella [5, 15]
80: Morningglory plant response rating [8, 17] | Foxtail, Giant plant response rating [10, 17] | Barnyardgrass plant response rating [12, 17]
20: Plant response rating, Barley ([1]; Postemergence, 125 g ai/ha, scale 0 to 100 (0 no effect, 100 complete control), 13 to 15 days) | Plant response rating, Morningglory [8, 19]
35: Barley plant response rating ([1]; Postemergence, 250 g ai/ha, scale 0 to 100)
60: Plant response rating, Ducksalad [3, 16]

CCCc1ncc(C(=O)C2=C(O)CCCC2=O)c(=O)n1-c1cccc(C)c1 [Compound 79]
60: Plant response rating, Corn [9, 18]
90: Plant response rating, Crabgrass, Large [6, 18] | Plant response rating, Barnyardgrass [12, 18]
30: Barley plant response rating (0 to 100 scale) [1, 22] | Plant response rating, Flood, Barnyardgrass [4] | Plant response rating, Flood, Sedge, Umbrella [5] | Plant response rating, Wheat [11, 20]
5: Plant response rating, Barley [1, 21]
70: Plant response rating, Barnyardgrass [12, 20] | Plant response rating, Velvetleaf [13, 19]
40: Plant response rating, Flood, Ducksalad [3]
35: Plant response rating, Barley [1, 23]
55: Plant response rating, Barley [1, 24]
80: Plant response rating, Crabgrass, Large [6, 26] | Plant response rating, Foxtail, Giant [10, 18] | Plant response rating, Barnyardgrass [12, 26]
50: Plant response rating, Crabgrass, Large [6, 19] | Plant response rating, Morningglory [8, 20] | Plant response rating, Foxtail, Giant [10, 26] | Plant response rating, Foxtail, Giant [10, 20] | Plant response rating, Wheat [11, 18]
15: Plant response rating, Rice [2, 16] | Plant response rating, Ducksalad [3, 16]
10: Plant response rating, Corn [9, 26]
100: Plant response rating, Crabgrass, Large [6, 20] | Plant response rating, Pigweed [7, 26] | Plant response rating, Pigweed [7, 18] | Plant response rating, Pigweed [7, 19] | Plant response rating, Pigweed [7, 20] | Plant response rating, Morningglory [8, 26] | Plant response rating, Morningglory [8, 18] | Plant response rating, Velvetleaf [13, 26] | Plant response rating, Velvetleaf [13, 18] | Plant response rating, Velvetleaf [13, 20]
0: Plant response rating, Rice [2, 25] | Rice plant response rating ([2]; 31 g ai/ha) | Plant response rating, Ducksalad [3, 25] | Ducksalad plant response rating ([3]; 31 g ai/ha) | Plant response rating, Barnyardgrass [4, 25] | Barnyardgrass plant response rating ([4]; 31 g ai/ha) | Plant response rating, Sedge, Umbrella [5, 25] | Plant response rating, Sedge, Umbrella [5, 16] | Sedge, Umbrella plant response rating ([5]; 31 g ai/ha) | Plant response rating, Morningglory [8, 19] | Plant response rating, Corn [9, 19] | Plant response rating, Corn [9, 20] | Plant response rating, Foxtail, Giant [10, 19] | Plant response rating, Wheat [11, 26] | Plant response rating, Wheat [11, 19] | Plant response rating, Barnyardgrass [12, 19]
20: Plant response rating, Flood, Rice [2] | Plant response rating, Barnyardgrass [4, 16]

O=C1CCCC(O)=C1C(=O)c1cnc(-c2ccc(Br)cc2)n(-c2ccccc2)c1=O [Compound 70]
0: Plant response rating, Rice [2, 25] | Plant response rating, Rice [2, 16] | Rice plant response rating ([2]; 31 g ai/ha) | Plant response rating, Flood, Ducksalad [3] | Plant response rating, Ducksalad [3, 25] | Plant response rating, Ducksalad [3, 16] | Ducksalad plant response rating ([3]; 31 g ai/ha) | Plant response rating, Barnyardgrass [4, 25] | Plant response rating, Barnyardgrass [4, 16] | Barnyardgrass plant response rating ([4]; 31 g ai/ha) | Plant response rating, Sedge, Umbrella [5, 25] | Sedge, Umbrella plant response rating ([5]; 31 g ai/ha) | Plant response rating, Morningglory [8, 19] | Corn plant response rating [9, 17] | Plant response rating, Corn [9, 19] | Plant response rating, Corn [9, 20] | Wheat plant response rating [11, 17] | Plant response rating, Wheat [11, 18] | Plant response rating, Wheat [11, 19] | Plant response rating, Wheat [11, 20] | Plant response rating, Barnyardgrass [12, 19]
80: Plant response rating, Barnyardgrass [12, 18] | Plant response rating, Velvetleaf [13, 20]
30: Barley plant response rating (0 to 100 scale) [1, 22] | Plant response rating, Foxtail, Giant [10, 19]
10: Plant response rating, Barley [1, 21] | Plant response rating, Morningglory [8, 20] | Plant response rating, Barnyardgrass [12, 20]
90: Plant response rating, Barley [1, 23] | Plant response rating, Barley [1, 24] | Plant response rating, Crabgrass, Large [6, 18] | Plant response rating, Crabgrass, Large [6, 20] | Plant response rating, Foxtail, Giant [10, 18]
70: Plant response rating, Velvetleaf [13, 19]
40: Plant response rating, Crabgrass, Large [6, 19]
50: Crabgrass, Large plant response rating [6, 17] | Foxtail, Giant plant response rating [10, 17] | Barnyardgrass plant response rating [12, 17]
20: Plant response rating, Flood, Rice [2] | Plant response rating, Flood, Barnyardgrass [4] | Plant response rating, Flood, Sedge, Umbrella [5] | Plant response rating, Sedge, Umbrella [5, 16] | Plant response rating, Corn [9, 18]
60: Plant response rating, Pigweed [7, 19] | Plant response rating, Foxtail, Giant [10, 20]
100: Pigweed plant response rating [7, 17] | Plant response rating, Pigweed [7, 18] | Plant response rating, Pigweed [7, 20] | Morningglory plant response rating [8, 17] | Plant response rating, Morningglory [8, 18] | Velvetleaf plant response rating [13, 17] | Plant response rating, Velvetleaf [13, 18]

Reference: patent US8952024B2, “Herbicidal pyrimidone derivatives” (E I du Pont de Nemours and Company, priority 2009, dated 2015)
